These compounds were tested against recombinant DYRK1A kinase (Homo sapiens, UniProt Q13627) (assay: DYRK1A kinase assay (Ser/Thr 18 peptide Z-lyte FRET)). Conditions: DYRK1A 0.25 μg/mL, ATP 15 μM, Ser/Thr peptide 18 4 μM, one hour at room temperature, 11-point dose-response from 10 μM.
Format: biochemical
Method: Representative compounds were screened using the assay procedure for DYRK1A kinase activity as described below.
Each compound was dissolved in DMSO as a 10 mM stock and used to prepare compound source plates. Serial dilution (1:3, 11-point dose-response curves from 10 μM to 0.00016 μM) and compound transfer was performed using the ECHO 550 (Labcyte, Sunnyvale, CA) into 1536-well black-walled round bottom plates (Corning).
The DYRK1A kinase assay was run using the Ser/Thr 18 peptide Z-lyte assay kit according to manufacturer's instructions (Life Technologies—a Division of Thermo-Fisher). This is a non-radioactive assay using fluorescence resonance energy transfer (FRET) between coumarin and fluorescein to detect kinase activity which is represented as a ratio of coumarin emission/fluorescein emission.
Briefly, recombinant DYRK1A kinase, ATP and Ser/Thr peptide 18 were prepared in 1× Kinase buffer to final concentrations of 0.25 μg/mL, 15 μM, and 4 μM respectively. The mixture was allowed to incubate with the representative compounds for one hour at room temperature. All reactions were performed in duplicate. Unphosphorylated (“0% Control”) and phosphorylated (“100% control”) forms of Ser/Thr 18 served as control reactions. Additionally, an 11-point dose-response curve of Staurosporine (1 uM top) was run to serve as a positive compound control.
After incubation, Development Reagent A was diluted in Development Buffer then added to the reaction and allowed to further incubate for one hour at room temperature. The plate was read at Ex 400 Em 455 to detect the coumarin signal and Ex 400 Em 520 to measure the signal (EnVision Multilabel Plate Reader, PerkinElmer).
The Emission ratio (Em) was calculated as a ratio of the coumarin (C) emission signal (at 445 nm)/Fluorescein (F) emission signal (at 520 nm). The percent phosphorylation was then calculated using the following formula: [1−((Em ratio×F100%)−C100%)/((C0%−C100%)+(Em ratio×(F100%−F0%)))]. Dose-response curves were generated, and inhibitory concentration (IC50) values were calculated using non-linear regression curve fit in the Dotmatics' Studies Software (Bishops Stortford, UK).

SMILES | IC50
CNc1nc(N[C@@H]2CCN(C)CC2(F)F)nn2cc(F)c(-c3ccc4nc(C)n(CCF)c4n3)c12 [Compound 165, (R)—N^2-(3,3-Difluoro-1-methylpiperidin-4-yl)-6-fluoro-5-(3-(2-fluoroethyl)-2-methyl-3H-imidazo[4,5-b]pyridin-5-yl)-N^4-methylpyrrolo[2,1-f][1,2,4]triazine-2,4-diamine] | 2.3 nM
CNc1nc(N[C@@H]2CCN(C(C)=O)CC2(F)F)nn2cc(F)c(-c3ccc4nc(C)n(CCF)c4n3)c12 [Compound 166, (R)-1-(3,3-Difluoro-4-((6-fluoro-5-(3-(2-fluoroethyl)-2-methyl-3H-imidazo [4,5-b]pyridin-5-yl)-4-(methylamino)pyrrolo[2,1-f][1,2,4]triazin-2-yl)amino)piperidin-1-yl)ethan-1-one] | 2.9 nM
CNc1nc(N[C@@H]2CCN(C3COC3)CC2(F)F)nn2cc(F)c(-c3ccc4nc(C)n(CCF)c4n3)c12 [Compound 168, (R)—N^2-(3,3-Difluoro-1-(oxetan-3-yl)piperidin-4-yl)-6-fluoro-5-(3-(2-fluoroethyl)-2-methyl-3H-imidazo[4,5-b]pyridin-5-yl)-N^4-methylpyrrolo[2,1-f][1,2,4]triazine-2,4-diamine] | 1.4 nM
CNc1nc(N[C@H]2CCN(C(=O)CO)C[C@H]2F)nn2ccc(-c3ccc4nc(C)n(CC(F)F)c4n3)c12 [Compound 174, 1-((3R,4S)-4-((5-(3-(2,2-Difluoroethyl)-2-methyl-3H-imidazo[4,5-b]pyridin-5-yl)-4-(methylamino)pyrrolo[2,1-f][1,2,4]triazin-2-yl)amino)-3-fluoropiperidin-1-yl)-2-hydroxyethan-1-one] | 2 nM
CNc1nc(N[C@@H]2CCN(C(=O)CO)CC2(F)F)nn2ccc(-c3ccc4nc(C)n(CC(F)F)c4n3)c12 [Compound 175, (R)-1-(4-((5-(3-(2,2-Difluoroethyl)-2-methyl-3H-imidazo[4,5-b]pyridin-5-yl)-4-(methylamino)pyrrolo[2,1-f][1,2,4]triazin-2-yl)amino)-3,3-difluoropiperidin-1-yl)-2-hydroxyethan-1-one] | 1.3 nM
CNc1nc(N[C@@H]2CCN(C(C)=O)CC2(F)F)nn2cc(F)c(-c3ccc4nc(C)n(CC(F)F)c4n3)c12 [Compound 177, (R)-1-(4-((5-(3-(2,2-Difluoroethyl)-2-methyl-3H-imidazo[4,5-b]pyridin-5-yl)-6-fluoro-4-(methylamino)pyrrolo[2,1-f][1,2,4]triazin-2-yl)amino)-3,3-difluoropiperidin-1-yl)ethan-1-one] | 1.5 nM
CCn1nnc2ccc(-c3c(F)cn4nc(N[C@H]5CCN(C6COC6)C[C@H]5F)nc(NC)c34)nc21 [Compound 214, 5-(3-Ethyl-3H-[1,2,3]triazolo[4,5-b]pyridin-5-yl)-6-fluoro-N^2-((3R,4S)-3-fluoro-1-(oxetan-3-yl)piperidin-4-yl)-N^4-methylpyrrolo[2,1-f][1,2,4]triazine-2,4-diamine] | 4.9 nM
CCn1nnc2ccc(-c3c(F)cn4nc(N[C@@H]5CCN(C)CC5(F)F)nc(NC)c34)nc21 [Compound 215, (R)—N^2-(3,3-Difluoro-1-methylpiperidin-4-yl)-5-(3-ethyl-3H-[1,2,3]triazolo [4,5-b]pyridin-5-yl)-6-fluoro-N^4-methylpyrrolo[2,1-f][1,2,4]triazine-2,4-diamine] | 2.3 nM
CCn1nnc2ccc(-c3c(F)cn4nc(N[C@@H]5CCN(C(C)=O)CC5(F)F)nc(NC)c34)nc21 [Compound 216, (R)-1-(4-((5-(3-Ethyl-3H-[1,2,3]triazolo[4,5-b]pyridin-5-yl)-6-fluoro-4-(methylamino)pyrrolo[2,1-f][1,2,4]triazin-2-yl)amino)-3,3-difluoropiperidin-1-yl)ethan-1-one] | 2.6 nM
Nc1nc(N[C@H]2CCN(C3COC3)C[C@H]2F)nn2ccc(-c3ccc4nnn(CCF)c4n3)c12 [Compound 220, N^2-((3R,4S)-3-Fluoro-1-(oxetan-3-yl)piperidin-4-yl)-5-(3-(2-fluoroethyl)-3H-[1,2,3]triazolo[4,5-b]pyridin-5-yl)pyrrolo[2,1-f][1,2,4]triazine-2,4-diamine] | 5.2 nM
CN1CC[C@@H](Nc2nc(N)c3c(-c4ccc5nnn(CCF)c5n4)ccn3n2)C(F)(F)C1 [Compound 221, (R)—N^2-(3,3-Difluoro-1-methylpiperidin-4-yl)-5-(3-(2-fluoroethyl)-3H-[1,2,3]triazolo[4,5-b]pyridin-5-yl)pyrrolo[2,1-f][1,2,4]triazine-2,4-diamine] | 2.8 nM
CC(=O)N1CC[C@@H](Nc2nc(N)c3c(-c4ccc5nnn(CCF)c5n4)ccn3n2)C(F)(F)C1 [Compound 222, (R)-1-(4-((4-Amino-5-(3-(2-fluoroethyl)-3H-[1,2,3]triazolo[4,5-b]pyridin-5-yl)pyrrolo[2,1-f][1,2,4]triazin-2-yl)amino)-3,3-difluoropiperidin-1-yl)ethan-1-one] | 3.2 nM
CNc1nc(NC2CCC(F)(F)CC2)nn2ccc(-c3ccc4nnn(CCF)c4n3)c12 [Compound 233, N^2-(4,4-Difluorocyclohexyl)-5-(3-(2-fluoroethyl)-3H-[1,2,3]triazolo[4,5-b]pyridin-5-yl)-N^4-methylpyrrolo[2,1-f][1,2,4]triazine-2,4-diamine] | 8.1 nM
CNc1nc(N[C@H]2CC[C@](C)(O)CC2)nn2ccc(-c3ccc4nnn(CCF)c4n3)c12 [Compound 234, (1r,4r)-4-((5-(3-(2-Fluoroethyl)-3H-[1,2,3]triazolo[4,5-b]pyridin-5-yl)-4-(methylamino)pyrrolo[2,1-f][1,2,4]triazin-2-yl)amino)-1-methylcyclohexan-1-ol] | 0.8 nM
CNc1nc(N[C@H]2CCN(C(C)=O)C[C@H]2F)nn2ccc(-c3ccc4nnn(CCF)c4n3)c12 [Compound 235, 1-((3R,4S)-3-Fluoro-4-((5-(3-(2-fluoroethyl)-3H-[1,2,3]triazolo[4,5-b]pyridin-5-yl)-4-(methylamino)pyrrolo[2,1-f][1,2,4]triazin-2-yl)amino)piperidin-1-yl)ethan-1-one] | 2 nM
CNc1nc(N[C@H]2CCN(C3COC3)C[C@H]2F)nn2ccc(-c3ccc4nnn(CCF)c4n3)c12 [Compound 236, N^2-((3R,4S)-3-fluoro-1-(oxetan-3-yl)piperidin-4-yl)-5-(3-(2-fluoroethyl)-3H-[1,2,3]triazolo[4,5-b]pyridin-5-yl)-N^4-methylpyrrolo[2,1-f][1,2,4]triazine-2,4-diamine] | 2.1 nM
CNc1nc(N[C@@H]2CCN(C)CC2(F)F)nn2ccc(-c3ccc4nnn(CCF)c4n3)c12 [Compound 237, (R)—N^2-(3,3-Difluoro-1-methylpiperidin-4-yl)-5-(3-(2-fluoroethyl)-3H-[1,2,3]triazolo[4,5-b]pyridin-5-yl)-N^4-methylpyrrolo[2,1-f][1,2,4]triazine-2,4-diamine] | 0.7 nM
CNc1nc(N[C@@H]2CCN(C(C)=O)CC2(F)F)nn2ccc(-c3ccc4nnn(CCF)c4n3)c12 [Compound 238, (R)-1-(3,3-Difluoro-4-((5-(3-(2-fluoroethyl)-3H-[1,2,3]triazolo[4,5-b]pyridin-5-yl)-4-(methylamino)pyrrolo[2,1-f][1,2,4]triazin-2-yl)amino)piperidin-1-yl)ethan-1-one] | 1.4 nM
CNc1nc(N[C@@H]2CCN(C3COC3)CC2(F)F)nn2ccc(-c3ccc4nnn(CCF)c4n3)c12 [Compound 239, (R)—N^2-(3,3-Difluoro-1-(oxetan-3-yl)piperidin-4-yl)-5-(3-(2-fluoroethyl)-3H-[1,2,3]triazolo[4,5-b]pyridin-5-yl)-N^4-methylpyrrolo[2,1-f][1,2,4]triazine-2,4-diamine] | 0.6 nM
CNc1nc(N[C@H]2CC[C@](C)(O)CC2)nn2cc(F)c(-c3ccc4nnn(CCF)c4n3)c12 [Compound 248, (1r,4r)-4-((6-Fluoro-5-(3-(2-fluoroethyl)-3H-[1,2,3]triazolo[4,5-b]pyridin-5-yl)-4-(methylamino)pyrrolo[2,1-f][1,2,4]triazin-2-yl)amino)-1-methylcyclohexan-1-ol] | 2 nM
CNc1nc(N[C@H]2CCN(C(C)=O)C[C@H]2F)nn2cc(F)c(-c3ccc4nnn(CCF)c4n3)c12 [Compound 249, 1-((3R,4S)-3-Fluoro-4-((6-fluoro-5-(3-(2-fluoroethyl)-3H-[1,2,3]triazolo[4,5-b]pyridin-5-yl)-4-(methylamino)pyrrolo[2,1-f][1,2,4]triazin-2-yl)amino)piperidin-1-yl)ethan-1-one] | 1.9 nM
CNc1nc(N[C@H]2CCN(C3COC3)C[C@H]2F)nn2cc(F)c(-c3ccc4nnn(CCF)c4n3)c12 [Compound 250, 6-Fluoro-N^2-((3R,4S)-3-fluoro-1-(oxetan-3-yl)piperidin-4-yl)-5-(3-(2-fluoroethyl)-3H-[1,2,3]triazolo[4,5-b]pyridin-5-yl)-N^4-methylpyrrolo[2,1-f][1,2,4]triazine-2,4-diamine] | 0.7 nM

— patent publication US20250340575A1, “4-AMINOPYRROLO[2,1-F][1,2,4]TRIAZINES AND PREPARATION AND USES THEREOF” (Biosplice Therapeutics, Inc., priority 2024, published 2025)
